We go through two compounds from patent US7547705B2, “Substituted 8′-pyri(MI)dinyl-dihydrospiro-[cycloalkylamine]-pyrimido[1,2-a]pyrimidin-6-one derivatives” (Sanofi-Aventis, priority 2003, dated 2009).

SMILES strings stand for the structures.

The test addresses GSK3β (Homo sapiens, UniProt P49841). The test is described as follows: Inhibitory activity against GSK3β (33P-ATP phosphorylation of prephosphorylated GS1 peptide, two protocols). The settings on record: GS1 peptide / 33P-ATP filter assay; which of the two protocols was used is not stated. The test is classed as biochemical. As for the experimental part:
Inhibitory activity of the medicament of the present invention against GSK3β: Two different protocols can be used. In a first protocol: 7.5 μM of prephosphorylated GS1 peptide and 10 μM ATP (containing 300,000 cpm of 33P-ATP) were incubated in 25 mM Tris-HCl, pH 7.5, 0.6 mM DTT 6 mM MgCl2, 0.6 mM EGTA, 0.05 mg/ml BSA buffer for 1 hour at room temperature in the presence of GSK3beta (total reaction volume: 100 microliters). In a second protocol: 4.1 μM of prephosphorylated GSI peptide and 42 μM ATP (containing 260,000 cpm 33P-ATP) were incubated in 80 mM Mes-NaOH, pH 6.5, 1 mM Mg acetate, 0.5 mM EGTA, 5 mM 2-mercaptoethanol, 0.02% Tween 20,10% glycerol buffer for 2 hours at room temperature in the presence of GSK3beta. Inhibitors were solubilised in DMSO (final solvent concentration in the reaction medium, 1%). The reaction was stopped with 100 microliters of a solution made of 25 g polyphosphoric acid (85% P2O5), 126 ml 85% H3PO4, H2O to 500 ml and then diluted to 1:100 before use. An aliquot of the reaction mixture was then transferred to Whatman P81 cation exchange filters and rinsed with the solution described above. Incorporated 33P radioactivity was determined by liquid scintillation spectrometry. The phosphorylated GS-1 peptide had the following sequence: NH2-[…](P)EDEE-COOH. […]

GSK3β, sequence (P49841 whole entry, species assumed): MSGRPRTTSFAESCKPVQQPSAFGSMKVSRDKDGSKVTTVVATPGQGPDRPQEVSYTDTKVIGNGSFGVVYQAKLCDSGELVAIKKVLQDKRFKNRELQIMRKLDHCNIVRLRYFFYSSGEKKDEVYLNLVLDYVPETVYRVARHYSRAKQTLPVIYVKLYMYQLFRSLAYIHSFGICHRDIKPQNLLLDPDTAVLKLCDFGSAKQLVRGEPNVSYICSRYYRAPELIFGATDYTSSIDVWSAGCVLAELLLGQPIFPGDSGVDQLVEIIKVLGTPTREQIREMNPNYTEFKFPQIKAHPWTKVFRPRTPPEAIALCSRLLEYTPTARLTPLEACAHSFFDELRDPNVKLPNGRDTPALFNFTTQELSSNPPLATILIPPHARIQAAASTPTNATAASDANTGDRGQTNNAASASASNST

Usually IC50 stands for the midpoint of a concentration-inhibition curve. Low readings indicate inhibition by little substance, high ones a need for much substance. For `CN1CCC2(CC1)CCn1c(nc(-c3ccncc3)cc1=O)N2CC(=O)c1ccccc1` [compound No. 4 of table 1, 1-Methyl-1′-(2-oxo-2-phenylethyl)-8′-(pyridin-4-yl)-3′,4′-dihydrospiro[piperidine-4,2′-pyrimido[1,2-a]pyrimidin]-6′(1′H)-one], the IC50 came out at 7 nM.
As to `CN1CCC2(CCn3c(nc(-c4ccncc4)cc3=O)N2CC(=O)c2ccccc2)C1` (centres unmarked) [compound No. 4 of table 2, 1′-Methyl-1-(2-oxo-2-phenylethyl)-8-(pyridin-4-yl)-3,4-dihydrospiro (pyrimido[1,2-a]pyrimidine-2,3′-pyrrolidin]-6(1H)-one], the IC50 worked out at 6 nM.
